This is an account of results in US10688111B2, “Liquid formulations of compounds active at sulfonylurea receptors” (Biogen Chesapeake LLC, priority 2008, dated 2020).

Molecules are shown by their SMILES.

A short description of this series: Precipitation on dilution of concentrated glibenclamide solutions. The class given is physicochemical. As for the experimental part: This formulation may also include a buffer, such as meglumine or diethanolamine. This formulation may also include a surfactant; for example, this solution may include Tween 80 (e.g., less than about 1 ug/ml or less than about 1 ug/mg of glibenclamide). This formulation can be stored in a refrigerator (e.g., at about 2-8° C.) or can be stored at room temperature. This formulation is suitable for dilution; for example, it may be diluted 1:1, or 1:2 for use in bolus injections. This formulation may also be diluted by larger amounts of diluent, to 1:50 for example, for administration of glibenclamide as an infusion over an extended period of time. Dilution with a buffered solution allows the reduction of the solution pH to physiological levels without causing precipitation of glibenclamide. […] Experiments investigating the effect of dilution of relatively high concentrations of SUR-active compounds were performed. […] These solutions were diluted as follows with each of these diluents (0.9% NaCl and 5% glucose solutions): 1 in 2; 1 in 4; 1 in 5; 1 in 10; 1 in 20; and 1 in 50.

As to `COc1ccc(Cl)cc1C(=O)NCCc1ccc(S(=O)(=O)NC(=O)NC2CCCCC2)cc1` [Glibenclamide, N-p-(2-[5-Chloro-2-methoxybenzamido]ethyl) benzenesulfonyl-N′-cyclohexylurea], the precipitation on dilution result (2 mg/ml in 100 mM meglumine buffer with 0.9% NaCl or 5% glucose, diluted 1 in 2, 4, 5, 10, 20 and 50 with these diluents) is recorded as “no precipitation”. The “behaviour of drug during and following dilution” value (Example 1 formulation (40% PEG 300, 10% Ethanol, 50% water, about pH 9, 1 mg/ml) diluted 1:50 with Hartman's solution) was “remained in solution”.
